Values quoted from earlier work in patent publication US7141607B1, “Methods and compositions for treating and inhibiting retinal neovascularization” (Insite Vision Incorporated, priority 2000, dated 2006).

Test system: retinal neovascularization
Settings: IP injection on days 12, 14 and 16; same animal model

Compound: CNC(=O)[C@H](Cc1ccccc1)NC(=O)[C@H](CC(C)C)[C@H](CSc1cccs1)C(=O)NO (relative stereo) [batimastat, [2-R-[1(S*),2R*,3S*]]-N^4-hydroxy-N^1-[2-(methylamino)-2-oxo-1-(phenylmethyl)ethyl]-2-(2-methylpropyl)-3-[(2-thienylthio)methyl]butanediamide]
- reduction in neovascularization: 72%
